Test results reported in patent publication US7622551B2, “Leukocyte stimulating peptides” (POSCO, priority 2004, dated 2009).
“Also recorded” adds a separate entry of the source. Where no end group is shown, it is not given here.

How the values were obtained:
[1] = tested on: human neutrophils; assay: Superoxide generation (cytochrome c reduction) in human neutrophils; assay type: cell-based; conditions: for Superoxide production: 1 μM of peptide, cytochrome c reduction
Description: (§1) Peripheral blood leukocyte concentrates were donated by the Ulsan Red Cross Blood Center (Ulsan, Korea). PBMCs were separated on a Histopaque-1077 gradient. After two washings with HBSS without Ca^2+ and Mg^2+, the PBMCs were suspended in 10% FBS containing RPMI and incubated for 60 min at 37° C. to let the monocytes attach to the culture dish. Cells were washed 5 times with warmed RPMI medium to remove lymphocytes, and then the attached monocytes were collected, as described previously (Bae et al. J. Leukoc. Biol. 1999. 65: 241-248). Human neutrophils were isolated according to standard procedures; i.e., dextran sedimentation, hypotonic lysis of erythrocytes, and using a medium lymphocyte separation gradient, as described previously (Seo et al. J. Immunol. 1997. 158: 1895-1901). Isolated human leukocytes were then used promptly.
We determined superoxide anion generation by measuring cytochrome c reduction using a microtiter 96 well plate ELISA reader (Bio-Tekinstruments, EL312e, Winooski, Vt.) as described previously (Bae et al. Blood. 2001. 97: 2854-2862). Human neutrophils (1×10^6 cells/100 μl of RPMI 1640 medium per well of a 96-well plate) were preincubated with 50 μM of cytochrome c at 37° C. for 1 min and then incubated with the indicated peptide concentrations. Superoxide generation was determined from change in light absorption at 550 nm over 5 minutes at 1 min intervals.

[2] = tested on: differentiated HL60 cells; assay: Arachidonic acid (AA) release in [3H]AA-labeled dHL60 cells; assay type: cell-based, human; conditions: for AA release stimulating activity (in words) / Effect of cPLA2-specific inhibitors AACOCF3 and MAFP on peptide-induced AA release: dHL60 cells; for AA release stimulating activity (in words): 10 μM; for Effect of cPLA2-specific inhibitors AACOCF3 and MAFP on peptide-induced AA release: inhibitor pretreatment 15 min, 1 μM peptide; for Folds of increase (% of total), arachidonic acid release: differentiated HL60 cells, 10 μM of peptide
Description: (§2) U937 (human histiocytic lymphoma cells), HL60 (human promyelocytic leukemia cells), Raw 264.7 (mouse macrophage), Jurkat (human acute T cell leukemia), PC12 (rat adrenal pheochromocytoma cells), 3Y1 (Rat embryonic fibroblasts), 3T3L1 (preadipocytes), and NCI-H292 (human mucoepidermoid pulmonary carcinoma cells) were obtained from the American Type Culture Collection (Rockville, Md.) and maintained as recommended. FPR- or FPRL1 expressing RBL-2H3 cells were cultured as described previously (He et al. J. Immunol. 2000. 165: 4598-4605). Cells were maintained at about 1×10^6 cells/ml under standard incubator conditions (humidified atmosphere, 95% air, 5% CO2, at 37° C.). HL60 cells were induced to differentiate into the granulocyte phenotype by adding dimethylsulfoxide (DMSO) (final concentration 1.25%, v/v) for 4 days to the culture medium, as described previously (Itoh et al. Blood. 1998. 92: 1432-1441).
For the initial screening of the PS-SPCLs, we measured the AA release stimulating activity of each peptide pool. Cultured dHL60 cells (10^7 cells/ml) were pre-labeled with 0.5 μCi/ml of (^3H)-AA in RPMI 1640 medium containing 10% FBS for 90 min at 37° C. in a humidified incubator supplied with 95% air and 5% CO2, as described previously (Bae et al. J. Immunol. 2000. 164: 4089-4096). The labeled cells were then washed twice with serum-free RPMI 1640 and incubated in RPMI 1640 medium containing 0.1% fatty acid-free BSA for 15 min at 37° C. After discarding the medium, the cells were stimulated with various concentrations of peptide for the indicated times. Radioactivity in the medium and of collected cells was determined with a liquid scintillation counter. When investigating the effects of inhibitors, cells were preincubated with the indicated concentrations of each inhibitor or vehicle for 15 min prior to stimulation.

[3] = tested on: 3Y1; assay: [Ca2+]i rise in 3Y1 cells; assay type: cell-based, Rat; conditions: 3Y1, 10 μM
Description: as §2
(§3) The level of [Ca^2+]i was determined using Grynkiewicz's method using fura-2/AM (Grynkiewicz et al. J. Biol. Chem. 1985. 260: 3440-3550). Briefly, prepared cells were incubated with 3 μM of fura-2/AM at 37° C. for 50 min in serum-free RPMI 1640 medium under continuous stirring. […] Fluorescence changes were measured at the dual excitation wavelength of 340 nm and 380 nm, and the calculated fluorescence ratio was translated into [Ca^2+]i.

[4] = tested on: neutrophils; assay: [Ca2+]i rise in neutrophils; assay type: cell-based, human; conditions: 10 μM (FIG. 5)
Description: as §1, §3

[5] = tested on: HUVEC; assay: [Ca2+]i rise in HUVEC; assay type: cell-based; conditions: 10 μM
Description: The level of [Ca^2+]i was determined using Grynkiewicz's method using fura-2/AM (Grynkiewicz et al. J. Biol. Chem. 1985. 260: 3440-3550). Briefly, prepared cells were incubated with 3 μM of fura-2/AM at 37° C. for 50 min in serum-free RPMI 1640 medium under continuous stirring. 2×10^6 cells were aliquoted for each assay in Ca^2+ free Locke's solution (154 mM NaCl, 5.6 mM KCl, 1.2 mM MgCl2, 5 mM HEPES, pH 7.3, 10 mM glucose, and 0.2 mM EGTA). Fluorescence changes were measured at the dual excitation wavelength of 340 nm and 380 nm, and the calculated fluorescence ratio was translated into [Ca^2+]i.

[6] = tested on: NCI-H292; assay: [Ca2+]i rise in NCI-H292 cells; assay type: cell-based, human; conditions: NCI-H292, 10 μM
Description: as §2, §3

[7] = tested on: U937 cells; assay: [Ca2+]i rise in U937 cells; assay type: cell-based, human; conditions: 10 μM (FIG. 5)
Description: as §2, §3

[8] = tested on: Jurkat cells; assay: [Ca2+]i rise in Jurkat cells; assay type: cell-based, human; conditions: 10 μM (FIG. 5)
Description: as §2, §3

[9] = tested on: Raw 264.7; assay: [Ca2+]i rise in Raw 264.7 cells; assay type: cell-based, mouse; conditions: Raw 264.7, 10 μM (FIG. 5)
Description: as §2, §3

[10] = tested on: PC12; assay: [Ca2+]i rise in PC12 cells; assay type: cell-based, rat; conditions: PC12, 10 μM
Description: as §2, §3

[11] = tested on: Monocytes; assay: [Ca2+]i rise in monocytes; assay type: cell-based, human; conditions: 10 μM (FIG. 5)
Description: as §1, §3

Row | Substance | Superoxide generation (in words) [1] | Superoxide production [1] | AA release stimulating activity (in words) [2] | Effect of cPLA2-specific inhibitors AACOCF3 and MAFP on peptide-induced AA release [2] | Folds of increase (% of total), arachidonic acid release [2] | [Ca^2+]i rise [3] | [Ca^2+]i rise [4] | [Ca^2+]i rise [5] | [Ca^2+]i rise [6] | [Ca^2+]i rise [7] | [Ca^2+]i rise [8] | [Ca^2+]i rise [9] | [Ca^2+]i rise [10] | [Ca^2+]i rise [11]
1 | RKYHVM-NH2 [Peptide P14] | stimulate superoxide generation in a concentration-dependent manner | 9.3 ± 1.42 nmole/10^6 cells | most potent | blocked | 2.23 ± 0.403 folds | – | – | – | – | – | – | – | – | –
2 | MKYYKM-NH2 [Peptide P21] | stimulate superoxide generation in a concentration-dependent manner | 12.7 ± 1.76 nmole/10^6 cells | most potent | blocked | 2.86 ± 0.426 folds | – | – | – | – | – | – | – | – | –
3 | MKYYYM-NH2 [Peptide P24] | stimulate superoxide generation in a concentration-dependent manner; also recorded: most potent | 34.2 ± 0.48 nmole/10^6 cells | most potent | blocked | 2.93 ± 0.323 folds | no response | resulted in a [Ca^2+]i rise | no response | no response | activated | not activated | not activated | no response | activated
